The EC50 is the concentration needed to bring the measured effect to its halfway point.

From patent US8129527B2, “Analogs of dehydrophenylahistins and their therapeutic use” (Nereus Pharmacuticals, Inc., priority 2006, dated 2012) come the findings set out here.

Data set [1] has as its system MDA-231 human breast tumor. The data set is described as follows: MDA-231 Human Breast Tumor Orthotopic Xenograft Model (mammary fat pad). The format is in vivo, nude mice. To be noted: Breast MDA-231 (1 study); Paclitaxel qdx5 alone. On the procedure: (§1) The animals used were: female nude mice (nu/ni) (MDA-231 study) or B6D2F1 (B16-F10 studies) mice between 5 and 6 weeks of age (˜20 g, Harlan); group size was 10 mice per group unless otherwise indicated.
(§2) The cell lines used were: MDA-MB-231 human breast tumor and B16-F10 murine melanoma cells.
(§3) NPI compounds were administered as monotherapy via the intraperitoneal route at the doses indicated for the individual study; for the combination studies the selected reference chemotherapy agents were injected 15-30 min prior to the NPI compound.
Female nude mice were injected in the mammary fat pad with 2×10^6 MDA-231 cells harvested from in vitro cell culture. When the tumor size reached 5 mm×5 mm (about 14-28 days) the animals were matched into treatment and control groups. The study then proceeded as described for the HT-29 model, using paclitaxel as the standard chemotherapy agent.
In this model unless otherwise noted for the individual study, the test compounds were administered via the intraperitoneal route on Days 1, 4, 8, 11 and 15 (q3dx5); paclitaxel was administered via the intraperitoneal route on Days 1-5 (qdx5).
This model involves the placement of the human tumor tissue into the mouse mammary fat pad, a surrogate of the natural environment. In this manner the possibility of a positive effect due to a specific action on the subcutaneous vascular bed is avoided.
(In xenograft studies the graft and the host belong to different species.)

In data set [2] the test system is MES-SA/Dx5 multidrug resistant. Kind of data set: Cell growth inhibition assay, resazurin (Example 11). The format is cell-based, human. The conditions noted are these: for EC50: Homo sapiens, MES-SA/Dx5, mean ± standard deviation of three independent experiments; for Fold change: ratio of EC50 values (MES-SA/Dx5:MES-SA); for cytotoxic activity against both MES-SA and MES-SA/Dx5: in words. Here is the method: (§4) Human uterine sarcoma (MES-SA; CRL-1976), its multidrug resistant derivative (MES-SA/Dx5; CRL-1977), human acute promyelocytic leukemia cells (HL-60; CCL-240) and its multidrug resistant derivative (HL-60/MX2; CRL-2257) were purchased from ATCC and maintained in appropriate culture media. The cells were cultured in an incubator at 37° C. in 5% CO2 and 95% humidified air.
(§5) For cell growth inhibition assays, MES-SA and MES-SA/Dx5 cells were both seeded at 3×10^3 cells/well in 90 μl complete media into 96 well (Corning; 3904) black-walled, clear-bottom tissue culture plates and the plates were incubated overnight to allow cells to establish and enter log phase growth. HL-60 and HL-60/MX2 cells were both seeded at 5×10^4 cells/well in 90 μl complete media into 96 well plates on the day of compound addition. 20 mM stock solutions of the compounds were prepared in 100% DMSO and stored at −80° C. […] Ten μl volumes of the 10× serial dilutions were added to the test wells in triplicate and the plates returned to the incubator for 48 hours. The final concentration of DMSO was 0.25% in all samples.
(§6) Following 48 hours of drug exposure, 10 μl of 0.2 mg/ml resazurin (obtained from Sigma-Aldrich Chemical Co.) in Mg^2+, Ca^2+ free phosphate buffered saline was added to each well and the plates were returned to the incubator for 3-6 hours. […] Resazurin dye in medium without cells was used to determine the background, which was subtracted from the data for all experimental wells.
(§7) The multidrug resistant MES-SA/Dx5 tumor cell line was derived from the human uterine sarcoma MES-SA tumor cell line and expresses elevated P-Glycoprotein (P-gp), an ATP dependent efflux pump. The data in Table 19 summarize the growth inhibitory effects of NPI-2421, NPI-2463, NPI-2503, NPI-2504 and NPI-2506 against MES-SA and its multidrug resistant derivative MES-SA/Dx5. Paclitaxel, a known substrate of the P-gp pump was included as a control.

Data set [3] has as its system MES-SA human uterine sarcoma. The description is as above. The format is cell-based. The conditions noted are these: mean ± standard deviation of three independent experiments. Here is the method:
as §4, §5, §6, §7

Data set [4] concerns B16-F10 murine melanoma cells. Kind of data set: B16-F10 Metastatic Murine Melanoma Model. The format is in vivo, B6D2F1 mice. To be noted: monotherapy, lung surface metastases day 16. On the procedure:
as §1, §2, §3
Mice received B16-F10 cells (prepared from an in vitro cell culture of B16-F10 cells) by the iv route on Day 0. On Day 1 mice were randomized into treatment and control groups and treatment commenced. Mice were weighed twice weekly, starting on Day 1. All mice are sacrificed on Day 16, the lungs removed, weighed and the surface colonies counted. Results are expressed as mean colonies of treated mice/mean colonies of control mice (T/C)×100%). The metastasis growth inhibition (MGI) is this number subtracted from 100%. Paclitaxel was the standard chemotherapy agent used in this study.
In this model unless otherwise noted for the individual study, the test compounds were administered via the intraperitoneal route on Days 1-5 (qdx5); paclitaxel was administered intravenously on Days 1-5(qdx5).

A further data set has as its system HuVECs. The data set is described as follows: Cell growth inhibition assay, resazurin (Example 11). The format is cell-based, human. To be noted: for EC50: Homo sapiens, HuVEC, 48 hours, mean values of two independent experiments; for cytotoxicity against HuVECs: in words. On the procedure: The growth inhibitory activity of NPI-2421 and NPI-2463 were determined against human umbilical […] endothelial cells, HuVECs.
HuVECs (Cambrex Biosciences; CC2519A) were maintained in EGM-2 medium at 37° C. in 5% CO2 and 95% humidified air.
For cell growth inhibition assays, HuVECs were seeded at 1×10^3 cells/well in 90 μl complete media into a Corning 3904 black-walled, clear-bottom tissue culture plates and the plates were incubated overnight to allow cells to establish and enter log phase growth. 20 mM stock solutions of compounds were prepared in 100% DMSO and stored at −80° C. […] Ten μl volumes of the 10× serial dilutions were added to the test wells in triplicate and the plates returned to the incubator for 48 hours. The final concentration of DMSO was 0.25% in all samples.
as §6
Background: Resazurin is reduced to fluorescent resorufin, in cell work by metabolically active cells.

Data set [5] has as its system HL-60 human acute promyelocytic leukemia cells. The data set is described as above. The format is cell-based. To be noted: mean values of two independent experiments. On the procedure:
as §4, §5, §6
HL-60/MX2 is a multidrug resistant tumor cell line derived from the human promyelocytic leukemia cell line, HL-60 and expresses reduced topoisomerase II activity. The data presented in Table 20 summarize the growth inhibitory effects of NPI-2421, NPI-2463, NPI-2503, NPI-2504 and NPI-2506 against HL-60 and its multidrug resistant derivative HL-60/MX2. Mitoxantrone, the topoisomerase II targeting agent was included as a control.

For data set [6], the system named is HL-60/MX2 multidrug resistant. The description is as above. The conditions noted are these: for EC50: Homo sapiens, HL60/MX2, HL-60/MX2, mean values of two independent experiments; for cytotoxic activity against both HL-60 and HL-60/MX2: in words; for Fold change: ratio of EC50 values (HL-60/MX2:HL-60). The format is cell-based, human.
A further data set deals with PC-3 prostate carcinoma. Described as above. The format is cell-based. The conditions noted are these: Homo sapiens, 48 hours, mean ± SD where n ≧ 3, ** n = 1. On the procedure: (§8) The growth inhibitory activity of NPI-2421, NPI-2463, NPI-2503 and NPI-2504 were determined against selected human (colorectal adenocarcinoma, HT-29; breast adenocarcinoma, MDA-MB-231; non-small cell lung carcinoma, NCI-H292 and prostate carcinomas, PC-3 and DU 145) and mouse (melanoma, B16-F10) tumor cell lines.
(§9) HT-29 (HTB-38), MDA-MB-231 (HTB-26), NCI-H292 (CRL-1848), B16-F10 (CRL-6475), PC-3 (CRL-1435) and DU 145 (HTB-81) cells were all purchased from the ATCC. The cell lines were maintained in their respective ATCC recommended culture media and cultured in an incubator at 37° C. in 5% CO2 and 95% humidified air.
(§10) 20 mM stock solutions of compounds were prepared in 100% DMSO and stored at −80° C. 10× concentrated serial dilutions of the compounds were prepared in B16-F10 cell culture medium for final concentrations ranging from 20 μM to […]. Ten μl volumes of the 10× serial dilutions were added to the test wells in triplicate and the plates returned to the incubator for 48 hours. The final concentration of DMSO was 0.25% in all samples.
as §6

The test system of data set [7] is DU 145 prostate carcinoma. The data set is described as above. The format is cell-based. To be noted: Homo sapiens, 48 hours. Here is the method: as §8, §9, §10, §6
Another data set has as its system B16-F10 melanoma. Described as above. The format is cell-based. To be noted: Mus musculus, 48 hours, mean ± SD where n ≧ 3. Here is the method: as §8, §9, §10, §6
Data set [8] relates to HT-29 colorectal adenocarcinoma. The data set is described as above. To be noted: Homo sapiens, 48 hours, mean ± SD where n ≧ 3. The format is cell-based. Here is the method:
as §8, §9, §10, §6

Data set [9] has as its system MDA-MB-231 breast adenocarcinoma. The data set is described as above. The format is cell-based. The conditions noted are these: Homo sapiens, 48 hours, mean ± SD where n ≧ 3. Here is the method:
as §8, §9, §10, §6

Data set [10] relates to NCI-H292 non-small cell lung carcinoma. Described as above. To be noted: Homo sapiens, 48 hours, mean ± SD where n ≧ 3, ** n = 1. The format is cell-based. Here is the method:
as §8, §9, §10, §6

Data set [11] concerns HT-29 human colorectal carcinoma cells. Kind of data set: Cell growth inhibition assay, resazurin (Table 3.2). The format is cell-based. To be noted: Table 3.2, HT-29 cells, read-out: EC50 (M) Mean. The procedure, abridged:
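HT-29 cells seeded at 5×10^3/well overnight, then exposed in triplicate to compounds at final 20 μM to […] (0.25% DMSO) for 48 h at 37° C. Viability read by resazurin reduction after 3-4 h further incubation, with cell-free dye background subtracted.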

In the next data set the test system is HT-29 cells. Kind of data set: Additional cytotoxicity assays, resazurin (Table 3.1). The conditions noted are these: Table 3.1. The format is cell-based, human. Put shortly: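 Cells exposed 48 hours to compounds at final concentrations 2.0×10^−5 M to 2.0×10^−10 M, in triplicate. Viability then read as resazurin fluorescence after 3-4 hours with dye; cell-free dye background subtracted.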

`CC(=O)O[C@H]1C(=O)[C@@]2(C)[C@H]([C@H](OC(=O)c3ccccc3)[C@]3(O)C[C@H](OC(=O)[C@H](O)[C@@H](NC(=O)c4ccccc4)c4ccccc4)C(C)=C1C3(C)C)[C@]1(OC(C)=O)CO[C@@H]1C[C@@H]2O` [Paclitaxel, reference compound]: in data set [1], the “Tumor Growth Inhibition (%) Reference Agent” value came to 53% and the “Tumor Regression (#/total) Reference Agent” value is on record as 1/10. Further, in data set [2], a half-maximal response (EC50) required 2000 ± 150 nM and the Fold change stood at 417. For the same compound, the “less active against the resistant MES-SA/Dx5 cells” value in [2] (vs MES-SA) is ~400 times. Further, the midpoint of the response in data set [3], the EC50, lay at 4.8 ± 2.1 nM. In addition, in data set [4], the “MGI (metastasis growth inhibition)” value turned out to be 35.0%.

`CC(C)(C)c1ocnc1/C=c1\[nH]c(=O)/c(=C/c2cccc(F)c2)[nH]c1=O` [Compound 2463, tBu-Oxadelta-PLH-m-F]: the EC50 in the data set on HuVECs is 10 nM; in [2], 14 ± 3 nM; in data set [5], 26 nM; in [3] it was 12 ± 4 nM; in data set [6] it was 14 nM; in the data set with PC-3 prostate carcinoma it was 13 ± 5 nM. In addition, the EC50 in [7] worked out at 32 nM; with B16-F10 melanoma, 14 ± 5 nM; in data set [8], 16 ± 3 nM; in data set [9], 25 ± 9 nM; in data set [10] it was 24 ± 11 nM; in [11], 1.71e-08 M. Moreover, the “cytotoxicity against HuVECs” value in the data set on HuVECs is reported as “cytotoxic against HuVECs”. The “cytotoxic activity against both MES-SA and MES-SA/Dx5” value in data set [2] is listed as “retained equivalent cytotoxic activity”. For the same compound, the Fold change in data set [2] is reported as 1.2; in data set [6], 0.5. Moreover, the “cytotoxic activity against both HL-60 and HL-60/MX2” value in [6] is given as “retained cytotoxic activity”.

As for `CC(C)(C)c1ocnc1/C=c1\[nH]c(=O)/c(=C/c2ccccc2)[nH]c1=O` [Compound 2421, tBu-delta-PLH-oxazole], the EC50 in the data set with HT-29 cells (Homo sapiens, HT-29, read-out: EC50 (M) Mean) is 2.22e-08 M; in the data set with HuVECs, 12 nM; in [2], 17 ± 4 nM; in data set [5] it was 23 nM; in data set [3], 12 ± 3 nM; in [6], 14 nM. The EC50 in the data set on PC-3 prostate carcinoma is > 2000 nM; in data set [7], 25 nM; with B16-F10 melanoma it was 19 nM; in data set [8] it was 21 ± 9 nM; in data set [9], 20 ± 6 nM; in data set [10] it was 41 nM. Also, the “% cytotox Mean” value in the data set with HT-29 cells was 88%. In addition, the “cytotoxicity against HuVECs” value in the data set with HuVECs is on record as “cytotoxic against HuVECs”. For the same compound, the “cytotoxic activity against both MES-SA and MES-SA/Dx5” value in [2] was “retained equivalent cytotoxic activity”. For the same compound, the Fold change in data set [2] worked out at 1.4; in data set [6], 0.6. In addition, in [6], the “cytotoxic activity against both HL-60 and HL-60/MX2” value was “retained cytotoxic activity”.
